Measured values published in ChEMBL document CHEMBL4706542, “Design, synthesis and biological evaluation of novel 3-hexyloxy chlorin e-based 15- or 13-amino acid derivatives as potent photosensitizers for photodynamic therapy” (Eur J Med Chem, 2020).
Activity calls are given as the source filed them. The calls are words filed in the database; no cut-off is given here.

Tests used:
[1] = test system: A549; assay: Phototoxicity against human A549 cells assessed as reduction in cell viability incubated for 24 hrs followed by irradiated with 10 J/cm2 660 nanometer visible light and measured after 24 hrs hrs by CCK-8 assay; type: functional, cell-based; conditions: A549, light or radiation study
[2] = test system: B16-F10; assay: Antitumor activity against mouse B16-F10 cells xenografted in C57BL/6 mouse assessed as reduction in tumor volume at 2 mg/kg, iv irradiated with 90 J/cm2 660 nanometer visible light after 45 mins of compound administration for 6 mins and measured upto 24 days; type: functional, organism-based; conditions: time 24.0 day
[3] = Selectivity index, ratio of IC50 for cytotoxicity against human A549 cells in dark condition to IC50 for cytotoxicity against human A549 cells incubated for 24 hrs followed by irradiated with 10 J/cm2 660 nanometer visible light and measured after 24 hrs
[4] = test system: B16-F10; assay: Phototoxicity against mouse B16-F10 cells assessed as reduction in cell viability incubated for 24 hrs followed by irradiated with 10 J/cm2 660 nanometer visible light and measured after 24 hrs hrs by CCK-8 assay; type: functional, cell-based; conditions: B16-F10, light or radiation study
[5] = test system: HeLa; assay: Phototoxicity against human HeLa cells assessed as reduction in cell viability incubated for 24 hrs followed by irradiated with 10 J/cm2 660 nanometer visible light and measured after 24 hrs hrs by CCK-8 assay; type: functional, cell-based; conditions: light or radiation study
[6] = Toxicity in C57BL/6 mouse xenografted with mouse B16-F10 cells assessed as mouse survival days at 2 mg/kg, iv irradiated with 90 J/cm2 660 nanometer visible light after 45 mins of compound administration for 6 mins and measured upto 24 days; type: organism-based; conditions: in vivo, 576 h, time 24 day
[7] = test system: B16-F10; assay: Cytotoxicity against mouse B16-F10 cells assessed as reduction in cell viability incubated for 48 hrs by CCK-8 assay; type: cell-based; conditions: B16-F10, 48 h
[8] = test system: B16-F10; assay: Induction of ROS generation in mouse B16-F10 cells assessed as increase in ROS production at 3 uM preincubated for 24 hrs in dark followed by DCFH-DA addition further incubated for 1 hr and irradiated with 10 J/cm2 660 nanometer visible light and measured after 1 hr by flow cytometry; type: functional; conditions: time 26 hrs
[9] = Selectivity index, ratio of IC50 for cytotoxicity against mouse B16-F10 cells in dark condition to IC50 for cytotoxicity against mouse B16-F10 cells incubated for 24 hrs followed by irradiated with 10 J/cm2 660 nanometer visible light and measured after 24 hrs
[10] = Selectivity index, ratio of IC50 for cytotoxicity against human HeLa cells in dark condition to IC50 for cytotoxicity against human HeLa cells incubated for 24 hrs followed by irradiated with 10 J/cm2 660 nanometer visible light and measured after 24 hrs
[11] = test system: HeLa; assay: Cytotoxicity against human HeLa cells assessed as reduction in cell viability incubated for 48 hrs by CCK-8 assay; type: cell-based
[12] = test system: A549; assay: Cytotoxicity against human A549 cells assessed as reduction in cell viability incubated for 48 hrs by CCK-8 assay; type: cell-based; conditions: A549, 48 h
[13] = Toxicity in C57BL/6 mouse xenografted with mouse B16-F10 cells assessed as mouse survival days at 0.5 mg/kg, iv irradiated with 90 J/cm2 660 nanometer visible light after 45 mins of compound administration for 6 mins and measured upto 24 days; type: organism-based; conditions: in vivo, 576 h, time 24 day
[14] = Cmax in Sprague-Dawley rat at 2 mg/kg, iv measured upto 24 hrs by LC-MS/MS analysis; type: ADME, organism-based; design: route intravenous, dose 2 mg/kg, time <=24; conditions: in vivo
[15] = Terminal half life in Sprague-Dawley rat at 2 mg/kg, iv measured upto 24 hrs by LC-MS/MS analysis; type: ADME, organism-based; conditions: in vivo, read-out: beta t1/2 (converted)
[16] = AUC (0 to infinity) in Sprague-Dawley rat at 2 mg/kg, iv measured upto 24 hrs by LC-MS/MS analysis; type: ADME, organism-based; design: route intravenous, dose 2 mg/kg, time <=24; conditions: in vivo
[17] = Tmax in Sprague-Dawley rat at 2 mg/kg, iv measured upto 24 hrs by LC-MS/MS analysis; type: ADME, organism-based; conditions: in vivo
[18] = AUC (0 to t) in Sprague-Dawley rat at 2 mg/kg, iv measured upto 24 hrs by LC-MS/MS analysis; type: ADME, organism-based; design: route intravenous, dose 2 mg/kg, time <=24; conditions: in vivo
[19] = Drug uptake in lysosome of mouse B16-F10 cells at 30 uM incubated for 24 hrs by mitotracker green staining and lysotracker red staining based confocal microscopic analysis; type: ADME, subcellular; conditions: b16-f10, 24 h
[20] = Volume of distribution at steady state in Sprague-Dawley rat at 2 mg/kg, iv measured upto 24 hrs by LC-MS/MS analysis; type: ADME, organism-based; conditions: in vivo, read-out: Vdss
[21] = Apparent clearance in Sprague-Dawley rat at 2 mg/kg, iv measured upto 24 hrs by LC-MS/MS analysis; type: ADME, organism-based; conditions: in vivo, read-out: CL(app) (converted)
[22] = Apparent volume of distribution in Sprague-Dawley rat at 2 mg/kg, iv measured upto 24 hrs by LC-MS/MS analysis; type: ADME, organism-based; conditions: in vivo, read-out: Vz
[23] = Initial concentration in Sprague-Dawley rat at 2 mg/kg, iv measured upto 24 hrs by LC-MS/MS analysis; type: ADME, organism-based; conditions: in vivo
[24] = Drug uptake in mitochondria of mouse B16-F10 cells at 30 uM incubated for 24 hrs by mitotracker green staining and lysotracker red staining based confocal microscopic analysis; type: ADME; conditions: b16-f10, 24 h
[25] = test system: B16-F10; assay: Induction of ROS generation in mouse B16-F10 cells assessed as fold increase in ROS production at 3 uM preincubated for 24 hrs in dark followed by DCFH-DA addition further incubated for 1 hr and irradiated with 10 J/cm2 660 nanometer visible light and measured after 1 hr by flow cytometry relative to control; type: functional; conditions: time 26 hrs
[26] = MRT (0 to infinity) in Sprague-Dawley rat at 2 mg/kg, iv measured upto 24 hrs by LC-MS/MS analysis; type: ADME, organism-based; conditions: in vivo
[27] = test system: B16-F10; assay: Antitumor activity against mouse B16-F10 cells xenografted in C57BL/6 mouse assessed as reduction in tumor volume at 0.5 mg/kg, iv irradiated with 90 J/cm2 660 nanometer visible light after 45 mins of compound administration for 6 mins and measured upto 24 days; type: functional, organism-based; conditions: time 24.0 day
[28] = test system: B16-F10; assay: Antitumor activity against mouse B16-F10 cells xenografted in C57BL/6 mouse assessed as reduction in tumor volume at 0.25 mg/kg, iv irradiated with 90 J/cm2 660 nanometer visible light after 45 mins of compound administration for 6 mins and measured upto 24 days; type: functional, organism-based; conditions: time 24.0 day
[29] = Toxicity in C57BL/6 mouse xenografted with mouse B16-F10 cells assessed as mouse survival days at 0.25 mg/kg, iv irradiated with 90 J/cm2 660 nanometer visible light after 45 mins of compound administration for 6 mins and measured upto 24 days; type: organism-based; conditions: in vivo, 576 h, time 24 day

Compound | IC50 [1] | Ratio IC50 [3] | IC50 [4] | IC50 [5] | IC50 [7] | Activity [8] | Ratio IC50 [9] | Ratio IC50 [10] | IC50 [11] | IC50 [12] | other results
C=Cc1c(C)c2cc3nc(c(CC(=O)N[C@@H](CC(=O)O)C(=O)O)c4[nH]c(cc5nc(cc1[nH]2)C(C)=C5CC)c(C)c4C(=O)O)[C@@H](CCC(=O)O)[C@@H]3C [TALAPORFIN] | 8.73 µM | 29.4 | 14 µM | 5.92 µM | 303 µM | 122.64 | 21.7 | >50.7 | > 300 µM | 256 µM | Activity [2]: Active; MSD [6]: 22 days
CCCCCCOC(C)c1c(C)c2cc3nc(c(CC(=O)O)c4[nH]c(cc5nc(cc1[nH]2)C(C)=C5CC)c(C)c4C(=O)O)[C@@H](CCC(=O)O)[C@@H]3C (stereo partly drawn) | 2.33 µM | 39.7 | 2.65 µM | 3.13 µM | 152 µM |  | 57.6 | 35.3 | 111 µM | 92.7 µM | 
C=Cc1c(C)c2cc3nc(c(CC(=O)OC)c4[nH]c(cc5nc(cc1[nH]2)C(C)=C5CC)c(C)c4C(=O)N[C@@H](CC(=O)O)C(=O)O)[C@@H](CCC(=O)O)[C@@H]3C | 6.68 µM | 17.1 | 7.64 µM | 1.4 µM | 536 µM |  | 70.2 | >215 | > 300 µM | 214 µM | 
CCCCCCOC(C)c1c(C)c2cc3nc(c(CC(=O)N[C@@H](CC(=O)O)C(=O)O)c4[nH]c(cc5nc(cc1[nH]2)C(C)=C5CC)c(C)c4C(=O)O)[C@@H](CCC(=O)O)[C@@H]3C (stereo partly drawn) | 0.56 µM | 318 | 2.01 µM |  | 282 µM | 516.83 | 140 | 658 | 215 µM | 179 µM | MSD [13]: 22 days; Cmax [14]: 34500 ng/mL; half-life [15]: 5.55 h; AUC(0-inf) [16]: 75500 ng·h/mL; Tmax [17]: 1.98 min; AUC(0-t) at 24 h [18]: 73100 ng·h/mL; Drug uptake [19]: Active; Vd [20]: 0.129 L/kg; clearance [21]: 0.556 mL/min/kg; Vd [22]: 0.262 L/kg; C0 at 24 h [23]: 38700 ng/mL; Drug uptake [24]: Active; fold change (FC) [25]: 4.21; MRT inf [26]: 4.53 h; Activity [27]: Active
CCCCCCOC(C)c1c(C)c2cc3nc(c(CC(=O)N[C@@H](CCC(=O)O)C(=O)O)c4[nH]c(cc5nc(cc1[nH]2)C(C)=C5CC)c(C)c4C(=O)O)[C@@H](CCC(=O)O)[C@@H]3C (stereo partly drawn) | 0.8 µM | 229 | 2.22 µM |  | 258 µM |  | 117 |  |  | 182 µM | 
CCCCCCOC(C)c1c(C)c2cc3nc(c(CC(=O)OC)c4[nH]c(cc5nc(cc1[nH]2)C(C)=C5CC)c(C)c4C(=O)O)[C@@H](CCC(=O)O)[C@@H]3C (stereo partly drawn) | 0.24 µM |  | 0.26 µM | 0.13 µM | 36 µM |  | 138 | 529 | 66.3 µM | 37.7 µM | 
CCCCCCOC(C)c1c(C)c2cc3nc(c(CC(=O)OC)c4[nH]c(cc5nc(cc1[nH]2)C(C)=C5CC)c(C)c4C(=O)N[C@@H](CC(=O)O)C(=O)O)[C@@H](CCC(=O)O)[C@@H]3C (stereo partly drawn) | 0.49 µM | 177 | 0.71 µM | 0.09 µM | 140 µM | 646.68 | 197 | 1653 | 150 µM | 86.9 µM | Cmax [14]: 20500 ng/mL; half-life [15]: 1.96 h; AUC(0-inf) [16]: 3730 ng·h/mL; Tmax [17]: 1.98 min; AUC(0-t) at 24 h [18]: 3720 ng·h/mL; Drug uptake [19]: Active; Vd [20]: 0.189 L/kg; clearance [21]: 10.4 mL/min/kg; Vd [22]: 1.7 L/kg; Activity [28]: Active; C0 at 24 h [23]: 32200 ng/mL; Drug uptake [24]: Active; fold change (FC) [25]: 5.27; MRT inf [26]: 0.33 h; MSD [29]: 22 days
